Source: PubChem BioAssay AID602210 (Sanford-Burnham Center for Chemical Genomics, 2012)
Active and inactive are the calls of the source. How the calls were made is not given here.

assay: modulators of 2-deoxyglucose-induced H9c2 death, dose response, myocardial damage modulator project, cell-based, ATPlite luminescence, rat, set 2 (AID 602210); conditions: H9c2 rat cardiomyoblasts, 2-deoxyglucose-induced death, 2 h

Row | SMILES | IC50
1 | CNC(=O)c1cccc(NC(=O)c2cc(-c3ccccc3)nc3c2cnn3C(C)C)c1 | 14.3 µM (inactive)
2 | COc1ccc2cc3cc(C(=O)NCCc4ccc(OC)c(OC)c4)oc3nc2c1 | 10.4 µM (inactive)
3 | CCOC(=O)c1cc2c(=O)n3cccc(C)c3nc2n(CCCOC)c1=NC(=O)c1cccnc1 | 11.3 µM (inactive)
4 | Cc1nn(-c2ccccc2)nc1C(=O)Nc1cccc(C(=O)NC2CC2)c1 | 18.6 µM (inactive)
5 | COc1ccc(-c2ccc3[nH]c4c(c3c2)CCN2C[C@H]3[C@H](C)ON(C)[C@H]3C[C@@H]42)cc1 | 29.8 µM (inactive)
6 | Cc1ccc(NC(=O)c2nc[nH]c2C(=O)NCCCCCCNC(=O)c2[nH]cnc2C(=O)Nc2ccc(C)cc2)cc1 | 0.24 µM
7 | O=c1cc(-c2cccnc2)oc2c1ccc1ccccc12 | 16.4 µM (inactive)
8 | Cc1ccc(NC(=O)c2cc(=O)c3ccccc3o2)cc1S(=O)(=O)N1CCOCC1 | 29.6 µM (inactive)
9 | COc1ccc(OC)c(/C=N/Nc2nncn2/N=C/c2cc(OC)ccc2OC)c1 | > 79 µM (inactive)
10 | CCOc1cc(/C=C(\C#N)C(=O)Nc2ccc(S(N)(=O)=O)cc2)ccc1OCCN1CCOCC1 | 9.62 µM
11 | O=C(CCCn1c(SCC(=O)c2ccc(O)c(O)c2)nc2ccccc2c1=O)NCC1CCCO1 (stereo unspecified) | 36.8 µM (inactive)
12 | CCCc1cc(N2CCN(C(=O)c3ccco3)CC2)n2c(nc3ccccc32)c1C#N | 26.3 µM (inactive)
13 | COc1ccc(/C=C/C(=O)c2ccccc2O)cc1CN1CCOCC1 | 25.7 µM (inactive)
14 | N#Cc1c(-c2ccco2)cc(-c2cccnc2)nc1N | 26.1 µM (inactive)
15 | COc1cc(/C=C/c2nc3ccccc3c(=O)n2-c2ccccc2O)ccc1O | 27.5 µM (inactive)
16 | COc1ccccc1NC(=O)COc1ccc(C(=O)OCC(=O)NC(C)(C)C)cc1OC | 23.9 µM (inactive)
17 | CC(=O)Nc1ccc(C(=O)N/N=C/c2ccccc2OC(=O)c2ccc(Cl)cc2)cc1 | 14.7 µM (inactive)
18 | COc1cc(NC(=O)c2ccc(-c3cn[nH]c3)c3ccoc23)cc(OC)c1OC | 15.4 µM (inactive)
19 | O=C(Nc1cccc2cccnc12)c1ccc2sc([C@H]3C[C@H](O)[C@@H](CO)O3)nc2c1 | 24.3 µM (inactive)
20 | CCN1C(=O)/C(=C/c2nc3ccccc3c(=O)[nH]2)c2ccccc21 | 27.9 µM (inactive)
21 | CC(C)(C)OC(=O)C[C@@H]1C/C=C\C[C@@H](CC(=O)N[C@@H](CO)Cc2ccccc2)C(=O)NC[C@@H](c2ccccc2)OC1=O | 22.6 µM (inactive)
22 | COc1ccccc1NC(=O)c1cc(-c2ccc(OC)c(OC)c2)nc2ccccc12 | 7.39 µM
23 | CC(=O)Nc1cc(-c2ccc(C(=O)NC3CC3)cc2)cn2c(-c3cccc(C(C)=O)c3)cnc12 | 23.3 µM (inactive)

Row | SMILES | IC50
24 | CCN(CC)C(=O)c1[nH]cnc1C(=O)NCC(=O)OCc1ccccc1 | 8.7 µM
25 | Cc1nc2ccccc2c2c(N)c3ccccc3n12 | 32.1 µM (inactive)
26 | COc1cc(NC(=O)c2cc3nc(-c4ccccc4)cc(-c4ccccc4)n3n2)cc(OC)c1OC | 7.15 µM
27 | CCN(C[C@H]1N[C@@](C)(C(=O)OC)[C@H]2C(=O)N(Cc3ccccc3)C(=O)[C@@H]12)C(=O)c1ccc(C(C)(C)C)cc1 | 17.9 µM (inactive)
28 | CCOC(=O)c1cc2c(=O)n3ccccc3nc2n(Cc2ccco2)c1=NC(=O)c1cccnc1 | 23 µM (inactive)
29 | O=C/C(=C\Nc1ccccn1)c1nc2cc(Cl)ccc2o1 | > 79 µM (inactive)
30 | COc1cccc(/C=N/NC(=O)c2ccncc2)c1OC(=O)c1ccc(Br)cc1 | 28.3 µM (inactive)
31 | CC(=O)Nc1ccc(-c2csc(NC(=O)Nc3ccccc3)n2)cc1 | 1.94 µM
32 | O=C(CNC(=O)c1nc[nH]c1C(=O)NCc1ccccc1)OCc1ccccc1 | 5.21 µM
33 | c1ccc(-c2nc(-n3ccnc3)nc(-n3ccnc3)n2)cc1 | 9.07 µM
34 | CC12CCC3C(CCC4CC(O)CCC43C)C1CC(O)C2 (stereo unspecified) | 10.4 µM (inactive)
35 | CSc1nc2ncc3c(n2n1)CC1c2ccccc2CCN1C3=O (stereo unspecified) | 51.3 µM (inactive)
36 | COc1cc(/C=C(\C#N)C(=O)Nc2ccccc2)ccc1OCCN1CCOCC1 | > 79 µM (inactive)
37 | CCOc1ccc(S(=O)(=O)N(C)CCO)cc1-c1nc2c(C(C)(C)C)nn(C)c2c(=O)[nH]1 | 33.2 µM (inactive)
38 | COc1cccc(OC)c1C(=O)Nc1cc(C)nn1-c1nc2ccccc2[nH]1 | 4.52 µM
39 | CC(=O)c1ccc(-c2cnc3c(NC=O)cc(-c4cccc(C(=O)N(C)C)c4)cn23)cc1 | 12.2 µM (inactive)
40 | COC(=O)c1[nH]c2cc(OC)c(OC)cc2c1/C=N/Nc1ccccc1 | > 79 µM (inactive)
41 | CCOC(=O)N1CCC(n2c(SCC(=O)N3CCC(C)CC3)nc3ccccc3c2=O)CC1 | 31.6 µM (inactive)
42 | CC(C)N1C(=O)S/C(=C/c2ccc3c(c2)n(C)c(=O)n3C)C1=O | 7.32 µM
43 | O=C(CNC(=O)c1nc[nH]c1C(=O)NCC(=O)OCc1ccccc1)OCc1ccccc1 | 0.953 µM
44 | COc1ccc(-c2nnc(-c3cc(OC)c(OC)c(OC)c3)o2)cc1OC | 15.9 µM (inactive)
45 | CCn1cc(C(=O)Nc2cccc(NC(C)=O)c2)c2cc(OC)c(OC)cc2c1=O | 39.1 µM (inactive)
46 | COc1cc(C(=O)Nc2cccc(-c3nnc(-c4ccco4)o3)c2)ccc1OC(C)=O | 9.42 µM

Row | SMILES | IC50
47 | O=C(CN1CCCCC1)Nc1nc(-c2ccc(F)c(F)c2)cs1 | > 79 µM (inactive)
48 | COc1ccc(N(CC(=O)Nc2cccc(C(C)=O)c2)S(=O)(=O)c2ccc(NC(C)=O)cc2)cc1 | 13.4 µM (inactive)
49 | O=C(NCCc1ccccc1Cl)c1ccc2nc3ccccc3c(=O)n2c1 | 28.7 µM (inactive)
50 | COc1ccc(-c2cc(C(=O)Nc3ccccc3N3CCOCC3)c3ccccc3n2)cc1OC | 7.58 µM
51 | O=C(CN(c1ccc2c(c1)OCCO2)S(=O)(=O)c1ccccc1)Nc1ccc2c(c1)OCO2 | 14.7 µM (inactive)
52 | COc1nc(N/N=C/c2cc3c(cc2Br)OCO3)nc(N2CCOCC2)n1 | 17.4 µM (inactive)
53 | COc1ccc(-c2oc(=O)c3cc(OC)c(OC)cc3c2C#CCCO)cc1 | 21.7 µM (inactive)
54 | Cc1cccc(NC(=O)c2nc[nH]c2C(=O)NCCCNC(=O)c2[nH]cnc2C(=O)Nc2cccc(C)c2)c1 | > 79 µM (inactive)
55 | CCOC(=O)c1cnc(Nc2nc3ccccc3o2)nc1CSc1nnc(C)s1 | 27.3 µM (inactive)
56 | O=C(NC1CCCCC1)C(c1ccc2ncccc2c1)N(Cc1ccccc1)C(=O)c1ccc2c(c1)OCCO2 (stereo unspecified) | 29.4 µM (inactive)
57 | O=C(NCC(=O)N(Cc1ccccc1)C(C(=O)NC1CCCCC1)c1ccco1)c1ccco1 (stereo unspecified) | 24 µM (inactive)
58 | COc1ccc2c(c1OC)c(=O)n1c3ccc(OC(C)C(=O)NCCN4CCOCC4)cc3c3ccnc2c31 (stereo unspecified) | 46.6 µM (inactive)
59 | COc1ccc2[nH]c(=O)c(CN(CC3CCCO3)S(=O)(=O)c3ccccc3F)cc2c1 (stereo unspecified) | 19.2 µM (inactive)
60 | Cc1[nH]c2ccccc2c1/C=N/NC(=O)c1cc(-c2cccs2)[nH]n1 | 5.8 µM
61 | COc1cc(C(=O)Nc2cc3c(cc2N2CCCCC2)n(C)c(=O)n3C)cc(OC)c1OC | 23.7 µM (inactive)
62 | CC(=O)c1cccc(NC(=O)Nc2ccc3c(c2)N(C)C(=O)CS3)c1 | > 79 µM (inactive)
63 | COc1ccc(-c2cc(-c3ccc(O)cc3)nc(N)c2C#N)cc1OC | > 79 µM (inactive)
64 | COc1cc(-c2cc(NC=O)c3ncc(-c4ccccc4)n3c2)cc(OC)c1OC | > 79 µM (inactive)
65 | CCOC(=O)C1=C(COC(=O)c2cc(OC)c(OC)c(OC)c2)NC(=O)NC1C (stereo unspecified) | 42.8 µM (inactive)
66 | NC(=O)COc1ccc2oc(=O)cc(-c3cc4ccccc4o3)c2c1 | 17.2 µM (inactive)
67 | COC(=O)c1cc(C(=O)OCC(=O)N2c3ccccc3NC(=O)C2(C)C)cc([N+](=O)[O-])c1 | 47.6 µM (inactive)
68 | Cc1ccc(CN(C(=O)CNC(=O)c2cccs2)C(C(=O)NCC2CCCO2)c2ccccc2)cc1 (stereo unspecified) | 19.1 µM (inactive)
69 | CCOC(=O)c1c2c3c(cccc3n(C)c1=O)C(=O)c1ccccc1-2 | 15.8 µM (inactive)

Row | SMILES | IC50
70 | CC(C)CC(C(=O)NC1CCCCC1)N(Cc1cccs1)C(=O)c1snc(C(N)=O)c1N (stereo unspecified) | 29.3 µM (inactive)
71 | O=C(Nc1ccc(C(=O)N2CCOCC2)cc1)c1cnn2c(C(F)F)cc(-c3ccccc3)nc12 | > 79 µM (inactive)
72 | CC(=O)Nc1cc(C)nn1-c1nc2ccccc2s1 | > 79 µM (inactive)
73 | CC(=O)Nc1cccc(NC(=O)c2cc(-c3cccnc3)nc3ccc(Cl)cc23)c1 | > 79 µM (inactive)
74 | CC1Cc2ccccc2N1C(=O)c1cc2c(=O)n3ccccc3nc2n1C (stereo unspecified) | 7.6 µM
75 | Cc1cc(C)c2c(N)c(C(=O)N/N=C/c3cccnc3)sc2n1 | 25.5 µM (inactive)
76 | COc1cc(-c2nnc(-c3cc(-c4ccccc4)nc4ccccc34)o2)cc(OC)c1OC | 7.22 µM
77 | COc1cccc(C(=O)Nc2c(C(N)=O)oc3ccccc23)c1 | 15.1 µM (inactive)
78 | COc1ccc(-n2c(/C=C/c3ccc(O)cc3)nc3ccccc3c2=O)cc1 | 18.5 µM (inactive)
79 | CCOc1ccc(CCNC(=O)c2cc3c(C)nccc3[nH]c2=O)cc1OCC | 8.64 µM
80 | CC(=O)Nc1ccc(S(=O)(=O)N(Cc2ccco2)Cc2cc3ccccc3[nH]c2=O)cc1 | 8.86 µM
81 | CCC(CC)C(=O)Nc1cc(C)c2c(=O)oc3ccccc3c2n1 | 36.4 µM (inactive)
82 | COc1cccc(CN(C)C(=O)C(Cc2ccccc2)NC(=O)c2ccccc2)c1OC (stereo unspecified) | 20.8 µM (inactive)
83 | COC(=O)c1ccccc1NC(=O)c1nc2nc(C)cc(C)n2n1 | 67.2 µM (inactive)
84 | O=C(NCC(=O)N(Cc1cccs1)C(C(=O)NC1CCCCC1)c1ccco1)c1ccco1 (stereo unspecified) | 18.5 µM (inactive)
85 | O=C(Nc1cccc(Cl)c1)c1nc[nH]c1C(=O)NCCCNC(=O)c1[nH]cnc1C(=O)Nc1cccc(Cl)c1 | > 79 µM (inactive)
86 | O=C(c1ccco1)N1CCN(C(=O)c2cc(-c3ccncc3)nc3ccc(Br)cc23)CC1 | 25.8 µM (inactive)
87 | CC(C)(C)OC(=O)N1CCC(NC(=O)c2nc[nH]c2C(=O)NCC(=O)OCc2ccccc2)CC1 | 4.3 µM
88 | CCn1c(SCC(=O)Nc2ccccc2N2CCCCC2)nc2c1c(=O)n(C)c(=O)n2C | 16.4 µM (inactive)
89 | CCOC(=O)c1ccc(NC(=O)c2nc[nH]c2C(=O)NCCCCCNC(=O)OC(C)(C)C)cc1 | 6.6 µM
90 | COc1cc(-c2cc3nc(NCCOc4ccccc4)ccn3n2)cc(OC)c1OC | 15.8 µM (inactive)
91 | O=C(Nc1cccc(/C=C/c2ccccn2)c1)c1ccc(-n2cncn2)cc1 | > 79 µM (inactive)
